# Data from patent US8557272B2, “Device for local and/or regional delivery employing liquid formulations of therapeutic agents” (Cordis Corporation, priority 2004, dated 2013).
# Columns and labels:
# [1] = MVP IVUS substudy after balloon angioplasty; format: in vivo, human
# Description: Serial intravascular ultrasound (IVUS) examinations have been performed in a consecutive series of patients involved in the MVP trial. By providing tomographic views of coronary arteries with high resolution, IVUS allows quantitative assessment of changes in arterial lumen and wall dimensions. We were therefore able in this study to determine the pathophysiology of coronary restenosis after balloon angioplasty in patients systematically undergoing follow-up IVUS examination and determine the effect of probucol on tissue hyperplasia and vascular remodeling after coronary angioplasty. The present invention concerns the IVUS substudy from the MVP restenosis trial. […] Briefly, patients referred for elective coronary angioplasty were evaluated at least 30 days prior to their scheduled procedure. […] The sequence of contrast injections with the exact degree of angulation was recorded and used for every angiogram. Coronary arteriograms (pre-, post-procedure, and final follow-up) were analyzed together using the Coronary Measurement System (CMS), as previously reported. […] Patients were readmitted for follow-up coronary angiography at five to seven months. […] IVUS imaging was monitored by an experienced cardiologist, but the angioplasty operator was blinded to ultrasound results to avoid altering standard balloon angioplasty practice. […]
# LDL = LDL peroxidation lag phase ex vivo (diene conjugates after copper ions); parameters: species or system human; details: treatment for one month; preliminary results
# Description: Dietary intervention and smoking habits were similar in all groups. Probucol may simply be a more powerful antioxidant than the combination of vitamins. To this regard, preliminary results from the continuous spectrophotometric monitoring of diene conjugates in LDL after the addition of copper ions to the isolated lipoprotein ex vivo (Free Radic Res Commun 1989; 6:67-75) of MVP patients are noteworthy.
# [2] = MVP randomized clinical trial, angiographic and clinical outcome; format: in vivo, human; details: probucol given alone, compared to placebo
# Description: It was not possible to determine with angiography alone whether probucol acted via inhibition of tissue hyperplasia or improvement in vascular remodeling. […] In addition, the invention enables the skilled practitioner to use probucol in conjunction with other percutaneous coronary interventions such as stenting if it is deemed appropriate.
# The present invention concerns the IVUS substudy from the MVP restenosis trial. MVP was a double-blind placebo-controlled randomized clinical trial with four study groups. The protocol was approved by the Montreal Heart Institute institutional review board. The MVP study design, inclusion and exclusion criteria have been previously described (N Engl J Med 1997; 365-372). Briefly, patients referred for elective coronary angioplasty were evaluated at least 30 days prior to their scheduled procedure. Eligible patients were asked to provide written informed consent. Patients were eligible if they were scheduled to undergo standard balloon angioplasty on at least one native coronary artery and had at least one de novo target lesion with luminal narrowing of fifty percent or more by caliper measurements.
# Beginning thirty days prior to scheduled angioplasty, patients were randomly assigned to receive either probucol alone, multivitamins alone, the combination of probucol and multivitamins, or placebo. Probucol 500 mg or matched placebo was administered twice daily. The multivitamin complex, consisting of vitamin E 700 IU, vitamin C 500 mg and beta-carotene 30,000 IU, or matched placebo was also administered in one tablet twice daily. […] The sequence of contrast injections with the exact degree of angulation was recorded and used for every angiogram. Coronary arteriograms (pre-, post-procedure, and final follow-up) were analyzed together using the Coronary Measurement System (CMS), as previously reported. […] Patients were readmitted for follow-up coronary angiography at five to seven months. […]
smiles,measurement,setting,value
"CC(C)(Sc1cc(C(C)(C)C)c(O)c(C(C)(C)C)c1)Sc1cc(C(C)(C)C)c(O)c(C(C)(C)C)c1 [probucol, 4,4′-([1-methylethylidene)bis(thio)]bis-[2,6-bis(1,1-dimethylethyl)phenol]]",reduction in lumen loss assessed by IVUS,[1]; compared to non-probucol treated patients,0.79 mm^2
same,reduction in lumen loss assessed by IVUS,[1]; probucol given alone compared to the placebo group only,1.06 mm^2
same,protection against LDL oxidation (lag phase for LDL peroxidation),LDL,significantly greater protection against LDL oxidation than vitamins alone or the combination of probucol and vitamins
same,reduction of angiographic lumen loss,[2],sixty-eight percent
same,reduction of restenosis rate per segment,[2],forty-seven percent
same,reduction of the need for repeat angioplasty at 6 month,[2],fifty-eight percent
